# Reference: patent US11485762B2, “Compositions and methods for inhibition of L-plastin activity in osteoclasts to reduce bone loss” (University of Maryland, Baltimore, priority 2017, dated 2022)
# Substitutions are numbered along the chain they refer to.
# B1: FL-LPL: HA-TAT fused full-length L-plastin protein (70-75 kDa), purified from bacterial expression vector pTAT-HA (protein, UniProt P13796 1-627, looked up)
# chain: MARGSVSDEEMMELREAFAKVDTDGNGYISFNELNDLFKAACLPLPGYRVREITENLMATGDLDQDGRISFDEFIKIFHGLKSTDVAKTFRKAINKKEGICAIGGTSEQSSVGTQHSYSEEEKYAFVNWINKALENDPDCRHVIPMNPNTNDLFNAVGDGIVLCKMINLSVPDTIDERTINKKKLTPFTIQENLNLALNSASAIGCHVVNIGAEDLKEGKPYLVLGLLWQVIKIGLFADIELSRNEALIALLREGESLEDLMKLSPEELLLRWANYHLENAGCNKIGNFSTDIKDSKAYYHLLEQVAPKGDEEGVPAVVIDMSGLREKDDIQRAECMLQQAERLGCRQFVTATDVVRGNPKLNLAFIANLFNRYPALHKPENQDIDWGALEGETREERTFRNWMNSLGVNPRVNHLYSDLSDALVIFQLYEKIKVPVDWNRVNKPPYPKLGGNMKKLENCNYAVELGKNQAKFSLVGIGGQDLNEGNRTLTLALIWQLMRRYTLNILEEIGGGQKVNDDIIVNWVNETLREAKKSSSISSFKDPKISTSLPVLDLIDAIQPGSINYDLLKTENLNDDEKLNNAKYAISMARKIGARVYALPEDLVEVNPKMVMTVFACLMGKGMKRV
# modifications: full-length HA-TAT tag
# notes: HA-TAT fused full-length L-plastin protein (70-75 kDa), purified from bacterial expression vector pTAT-HA
# B2: mutated FL-LPL: TAT-fused full-length L-plastin with Ser-5 and Ser-7 mutated to Ala-5 and Ala-7 (protein, UniProt P13796 1-627, looked up, variant S5A S7A)
# chain: B1 chain with S5A, S7A
# modifications: full-length HA-TAT tag
# Columns and labels:
# osteoclasts [1] = experiment: Formation of nascent sealing zones (NSZs) in osteoclasts plated on dentine slices (actin staining); format: cell-based, mouse; settings: for formation of NSZs: sNT-LPL peptides, dentine; for formation of NSZs, time course: 3, 6 and 10 hours, LPL and integrin αv immunostaining; for number of NSZs: dentine slices 2-3 hours, versus basal level
# Procedure: The vector pTAT-HA has an N-terminal 6-histidine leader (Nagahara et al., 1998, Nature Medicine, 4:1449-1452). […] For transduction with TAT-fused peptides (100-150 nM), osteoclasts were first kept in serum-free α-MEM for two hours. Afterward, TAT proteins of interest, bone particles, and TNF-α were added to cells in serum-free α-MEM Lysates were made from these cells for immunoprecipitation and immunoblotting analyses. Osteoclasts plated on dentine slices in the presence of TAT-proteins of interest and TNF-α for 3-6 hours or 12-14 hours were used for immunostaining or actin staining analyses. Osteoclast cultures treated only with TNF-α were used as controls.
# Osteoclast precursors (10^5 cells/coverslips) were cultured on glass cover slips or dentine slices. Fluorescent labeling was done in osteoclasts transduced or untransduced with TAT-proteins. HA or TAT antibody was used to identify the transduced peptides of interest; rhodamine phalloidin was used to determine actin organization (Chellaiah et al., 2000, J. Cell Biol., 148: 665-678; Chellaiah et al., 2000, J. Biol. Chem., 275: 11993-12002). Immunostained and actin stained osteoclasts were photographed with a Bio-Rad confocal laser-scanning microscope. Images were stored in TIF image format and processed by Adobe Photoshop (Adobe Systems Inc., Mountain View. Calif.).
# After cells were kept in the serum-free α-MEM medium for two hours, LPL peptides of interest were added to a final concentration of 100-150 nM to cells in serum-free media (Chellaiah et al, 2000, J. Biol. Chem., 275: 11993-12002). Osteoclasts transduced with peptides of interest and added with bone particles in the presence of TNF-α for 3-4 hours or 12-14 hours were used for lysate preparations. Cells plated on coverslips and treated with peptides were used for actin staining to detect podosomes. […] These cells were used for Actin staining with rhodamine-phalloidin or immunostaining analyses (Chellaiah et al., 2000, J. Biol. Chem., 275: 11993-12002; Chellaiah et al., 2000, J. Cell. Biol., 148: 665-678; Chellaiah et al., 2003, J Biol Chem 278: 29086-29097).
# Osteoclasts were fixed with 3% paraformaldehyde for 20 minutes and permeabilized with 0.1% Triton X-100 in PBS for 5 minutes. Subsequently, osteoclasts were stained with a primary (HA or integrin αv) and secondary antibody as described (Chellaiah et al., 2003, J Biol Chem 278: 29086-29097). Actin staining was done with rhodamine-phalloidin as described (Chellaiah et al., 2000, J. Biol. Chem., 275: 11993-12002; Chellaiah et al., 2000, J. Cell Biol., 148: 665-678). Cells were washed and mounted on a slide in a mounting solution (Vector Laboratories) and sealed with nail polish. Immunostained osteoclasts were photographed with a Bio-Rad and Nikon confocal microscope. Images were stored in TIF image format and processed by Adobe Photoshop (Adobe Systems Inc., Mountain View, Calif.).
# [2] = test system: osteoclasts derived from RAW cells; experiment: NSZs and sealing ring formation in osteoclasts derived from RAW cells; format: cell-based
# Excerpt: C57/BL6 mice were used for osteoclast preparation as described previously (Chellaiah et al., 2000, J. Cell Biol., 148: 665.678; Chellaiah et al., 2007, J. Biol. Chem., 282: 10104-10116). Osteoclasts were generated in vitro using mouse bone marrow (BM) cells as described (Chellaiah et al., 2000, J. Cell Biol., 148: 665-678; Chellaiah et al., 2007, J. Biol. Chem., 282: 10104.10116). Osteoclasts differentiated from RAW 264.7 cells were also used to corroborate a few of the observations made with osteoclasts derived from mouse BM cells. Osteoclasts from RAW 264.7 cells were generated as described previously (Gupta et al., 2003, J Bone Miner Res 18: 669-685). Conditions were established that offer >90% population of mature multinucleated osteoclasts from both mouse bone marrow and RAW cells.
# After cells were kept in the serum-free α-MEM medium for two hours, LPL peptides of interest were added to a final concentration of 100-150 nM to cells in serum-free media (Chellaiah et al, 2000, J. Biol. Chem., 275: 11993-12002). Osteoclasts transduced with peptides of interest and added with bone particles in the presence of TNF-α for 3-4 hours or 12-14 hours were used for lysate preparations. Cells plated on coverslips and treated with peptides were used for actin staining to detect podosomes. […]
# osteoclasts [3] = experiment: F-actin content by rhodamine phalloidin binding; format: cell-based, mouse; settings: for F-actin content: TAT-fused LPL peptides, dentine, TNF-α, versus basal level
# Procedure: For the measurement of F-actin, osteoclasts transduced with TAT-LPL peptides of interest for 15 to 30 minutes were re-plated on dentine slices for 3 to 4 hours or 10-12 hours, respectively, in the presence of indicated TAT-fused peptides of interest and TNF-α. For each treatment four to six wells in 24 well, culture dishes were used. Cells were fixed and rhodamine phalloidin binding to F-actin was done as described (Chellaiah et al., 2000, J. Cell Biol., 148: 665-678; Chellaiah et al., 2000, J. Biol. Chem., 275: 11993-12002: Chellaiah et at, 2007, J. Biol. Chem., 282: 10104-10116),
# Osteoclasts were transduced with LPL and control peptides. For each treatment four to six wells in 24 well culture dishes were used. Cells were fixed and rhodamine phalloidin binding to F-actin was done as described (Chellaiah et al., 1998, J. Biol. Chem., 273: 11908-11916; Chellaiah et al., 1996, Mol. Biol. Cell, 7: 743-753).
Molecule,formation of NSZs (osteoclasts [1]),"formation of NSZs, time course (osteoclasts [1])",number of NSZs (osteoclasts [1]; TNF-α),F-actin content (osteoclasts [3]),other results
"MARGAVADEE [Peptide P2, TAT-fused sNT-LPL peptide, Ser-5 and Ser-7 substituted to Alanine (A5A7)]",no inhibitory effect,,,,
"MARGSVSDEE [Peptide P1, TAT-fused small molecular weight (10aa) amino-terminal LPL peptide, unsubstituted (S5S7)]",considerable decrease,attenuates,,,"formation of NSZs [2]: significant decrease; formation of sealing rings [2]: significant decrease; F-actin level (osteoclasts [3]; sNT-LPL peptides, compared with P2, P5, and P6): decrease was significant"
"SRSGMVEEAD [Peptide P5, TAT-fused scrambled sNT-LPL peptide, control, reference compound]",no inhibitory effect,time-dependent organization,,,
B1,,,substantial increase above the basal level,substantial increase above the basal level,
B2,,,more or less equal,more or less equal,"formation of NSZs, lower magnification (FIG. 7) (osteoclasts [1]; dentine slices 3-4 hours, TNF-α): did not affect"
